The text below walks through data of patent publication US20090036363A1, “Peptides as cell penetrating carriers” (priority 2004, published 2009).

What all share (format): cell-based, human
Series [1] deals with HeLa cells. Nature of the series: Peptides toxicity assay (MTT assay), HeLa viability and proliferation. As to conditions: for cytotoxicity (result in words): MTT staining, 24 h incubation with HeLa cells, concentrations up to 1000 μM (FIG. 3A, 3B). As to the method: (§1) HeLa viability and proliferation in the presence of peptides was tested using a 3-(4,5-dimethylthiazol-2-yl)-2,5-diphenyltetrazolium bromide (MTT) assay.
(§2) (cf. “MTT-cell proliferation assay” Cell Biology: A Laboratory Handbook, Academic Press, 1998, Second Ed. vol.1; Y. Liu et al., “Mechanism of cellular 3-(4,5-dimethylthiazol-2-yl)-2,5-diphenyltetrazolium bromide (MTT) reduction”, J. Neurochem. 1997 vol. 69 pp. 581-93).
(§3) For each assay 7×10^3 cells/cm^2 were seeded on a 96-well plate (Nange Nunc) (100 μl/hole) and cultured for 24 h. In order to avoid saturation in cell growth after 24 h of peptide incubation, 7×10^3 cells/cm^2 were used in the proliferation measurement (instead of 21.4×10^3 cells/cm^2 seeded in previous experiments). After complete adhesion to the plate, the culture medium was discarded. Peptides were added at growing concentrations of 50, 100, 500, and 1000 μM. The cells were incubated for 3 h or 24 h at 37° C. under 5% CO2 atmosphere. MTT was added 2 h before the final incubation time, i.e., after 1 h for the 3 h incubation time and after 22 h for the 24 h incubation time at a final concentration per hole of 0.5 mg/ml. The cells with peptide and MTT were incubated for a further 2 h and then the medium was discarded by aspiration. Isopropanol was added to dissolve formazan, a dark blue coloured crystal observed in the wells. Absorbance was measured at λ=570 nm, 30 min after the addition of isopropanol. The cell viability was expressed as a percent ratio of cells treated with peptide against cells untreated used as control.

Assay in series [2]: as above
Particulars: human, HeLa cells, MTT, 24 h incubation, read-out: cell viability; for viability at 24 h, 50 µM: peptide at 50 μM (FIG. 3B); for viability at 24 h, 500 µM: peptide at 500 μM (FIG. 3B). Here is the method: as §1, §2, §3

Series [3] deals with HeLa cells. Description: Microplate fluorimeter reader assay (cellular uptake of carboxyfluoresceinated peptides). Here is the method: Comparative properties of labelled peptides for translocation through the cell membrane were checked with HeLa human cell line. First, the extent of the uptake of the monomers, dimers and trimers at 50 μM concentration in HeLa cells was quantified using a fluorescence microplate reader assay. A dose-response analysis was then undertaken, incubating HeLa cells with the peptides at different concentrations. The cellular uptake of the new peptides was also studied by confocal laser scanning microscopy (CLSM).
HeLa cells were obtained from ATCC. They were maintained in DMEM ([…]) culture medium (Biological Industries) containing 10% Fetal Calf Serum (FCS), 2 mM glutamine, 50 u/ml penicillin and […] streptomycin. For confocal microscopy experiments, exponentially growing HeLa cells were detached from the culture flasks using a trypsin-0.25% EDTA solution and the cell suspension was seeded at a concentration of 21.4×10^3 cells/cm^2 onto glass coverslips or onto 8-well Lab-Teck™ chambered coverglass or on 96-well plate (Nalge Nunc International). Experiments were carried out 24 h later, when the confluence was about 60-70%. The carboxyfluoresceinated compounds were dissolved in PBS and sterilized with 0.22 μm filters (Millex-GV, PVDF, Durapore, Millipore). The peptides and 5(6)-carboxyfluorescein stock solutions were diluted in the cell culture medium. Non-adherent cells were washed away and attached cells were incubated at 37° C. in CO2 atmosphere in DMEM medium with a known concentration of peptides for 3 h.
For each assay, 21.4×10^3 cells/cm^2 were seeded and cultured for 24 h. After complete adhesion to the plate, the culture medium was changed. […] The measurement of fluorescence emitted was carried out after 30 min incubation with lysis buffer in a FL600 Microplate Fluorescence Reader (Bio-Tek). Fluorescence was measured at a λexcitation=485/20 nm and a λemission=530/25 nm. A triplicate of each peptide or carboxyfluorescein concentration was performed and the fluorescence emitted for the blanks (cells with culture medium and without peptides) was subtracted. […]

Ends that are not written are not given here.

Take `CC[C@H](C)[C@H](NC(=O)[C@H](CCCCN)NC(=O)[C@@H](NC(=O)[C@H](CCC(N)=O)NC(=O)[C@@H](N)CCCNC(=N)N)[C@@H](C)CC)C(=O)N[C@@H](Cc1c[nH]c2ccccc12)C(=O)N[C@@H](Cc1ccccc1)C(=O)N[C@@H](CCC(N)=O)C(=O)N[C@@H](CC(N)=O)C(=O)N[C@@H](CCCNC(=N)N)C(=O)N[C@@H](CCCNC(=N)N)C(=O)N[C@@H](CCSC)C(=O)N[C@@H](CCCCN)C(=O)N[C@@H](Cc1c[nH]c2ccccc12)C(=O)N[C@@H](CCCCN)C(=O)N[C@@H](CCCCN)C(N)=O` [Antp, (Arg-Gln-Ile-Lys-Ile-Trp-Phe-Gln-Asn-Arg-Arg-Met-Lys-Trp-Lys-Lys)-NH2]: the “concentration at which cytotoxic” value in series [1] was 50 µM.

In the case of `CC[C@H](C)[C@H](NC(=O)[C@H](CCCCN)NC(=O)[C@@H](NC(=O)[C@H](CCC(N)=O)NC(=O)[C@H](CCCNC(=N)N)NC(=O)c1ccc2c(c1)C(=O)OC21c2ccc(O)cc2Oc2cc(O)ccc21)[C@@H](C)CC)C(=O)N[C@@H](Cc1c[nH]c2ccccc12)C(=O)N[C@@H](Cc1ccccc1)C(=O)N[C@@H](CCC(N)=O)C(=O)N[C@@H](CC(N)=O)C(=O)N[C@@H](CCCNC(=N)N)C(=O)N[C@@H](CCCNC(=N)N)C(=O)N[C@@H](CCSC)C(=O)N[C@@H](CCCCN)C(=O)N[C@@H](Cc1c[nH]c2ccccc12)C(=O)N[C@@H](CCCCN)C(=O)N[C@@H](CCCCN)C(N)=O` [CF-Antp-NH2], in series [2], the viability at 24 h, 50 µM is 75% and the viability at 24 h, 500 µM was 11%. The “cytotoxicity (result in words)” value in series [1] is recorded as “cytotoxic at relatively low concentrations”.

Turning to `N=C(N)NCCC[C@H](NC(=O)[C@H](CCCNC(=N)N)NC(=O)[C@H](CCCNC(=N)N)NC(=O)[C@H](CCC(N)=O)NC(=O)[C@H](CCCNC(=N)N)NC(=O)[C@H](CCCNC(=N)N)NC(=O)[C@H](CCCCN)NC(=O)[C@H](CCCCN)NC(=O)[C@H](CCCNC(=N)N)NC(=O)c1ccc2c(c1)C(=O)OC21c2ccc(O)cc2Oc2cc(O)ccc21)C(N)=O` [CF-Tat-NH2], in series [2], the viability at 24 h, 50 µM is 64% and the viability at 24 h, 500 µM stood at 40%. The “cytotoxicity (result in words)” value in series [1] is “cytotoxic at relatively low concentrations”.

Turning to “(Arg-Lys-Lys-Arg-Arg-Gln-Arg-Arg-Arg)-NH2 (RKKRRQRRR-NH2) [Tat]”, the “concentration at which cytotoxic” value in series [1] worked out at 50 µM.

For CF-(Val-Arg-Leu-Pro-Pro-Pro)3, the “fluorescence emitted (uptake) compared with the other CF-(Val-X-Leu-Pro-Pro-Pro)n peptides” value in series [3] (HeLa cells incubated 3 h at 50 μM, X=Arg and His, n=1-3 (FIG. 2A)) was “higher fluorescence intensity”. For the same compound, the “degree of internalization measured against CF-Antp-NH2” value in series [3] (HeLa cells, relative to CF-Antp-NH2) amounted to 20 times lower. For the same compound, the “degree of internalization measured against CF-Tat-NH2” value in series [3] (HeLa cells, relative to CF-Tat-NH2) is reported as 15 times lower.
